Reference: US10940135B2, “Paclitaxel pharmaceutical composition and pharmaceutical preparation thereof, preparation process and use thereof” (Sinotherapeutics Inc., priority 2016, dated 2021)
In brackets after ≈: the same amount, converted by molar mass.

Assays:
[1] = Apparent solubility determination in pH 6.8 phosphate buffer; format: physicochemical
Protocol: Apparent solubility determination: an excessive amount of the pharmaceutical compositions was weighed and put into a container. Phosphate buffer solution with pH6.8 was added respectively. The volume of the phosphate buffer solution was about 2/3 of volume of the container. The container was then shaken in a shaking table at 37° C. for 3 h. The resulting solution was filtered with a 0.45 μm filter membrane, then the filtrate was collected, further diluted with an appropriate amount of methanol, mixed by vortex and analyzed by HPLC.
Wherein the HPLC analysis parameters are as follows: […]

[2] = Dissolution determination (USP II method, pH 6.8 buffer + 0.2% Tween 80); format: physicochemical; conditions: pH 6.8 buffer + 0.2% Tween 80, 100 rpm, 37.5° C.
Source text: Dissolution Determination:
Wherein pH6.8 represents the environment simulating the human intestinal tract (small intestine).
Analysis of dissolved sample: the solution obtained in the dissolution determination test was filtered with a 0.45 μm filter membrane, then the filtrate was collected, further diluted with an appropriate amount of methanol, mixed by vortex and analyzed by HPLC. The HPLC analysis method of the dissolved sample was the same as the HPLC analysis method mentioned above in the solubility determination.

[3] = cited from earlier work
[4] = cited from earlier work; remark: listed apart in the source
[5] = reported as 0.1˜<10 μg/ml; cited from earlier work

**Q.** What does the source list for `CC(=O)O[C@H]1C(=O)[C@@]2(C)[C@H]([C@H](OC(=O)c3ccccc3)[C@]3(O)C[C@H](OC(=O)[C@H](O)[C@@H](NC(=O)c4ccccc4)c4ccccc4)C(C)=C1C3(C)C)[C@]1(OC(C)=O)CO[C@@H]1C[C@@H]2O` [Bulk drug, 5β,20-epoxy-1,2α,4,7β,10β,13α-hexahydroxytaxane-11-ene-9-one-4,10-diacetate-2-benzoate-13[(2′R,3′S)—N-benzoyl-3-phenylisoserine ester]]?
**A.** Ratio of solubility (composition/bulk drug) [1]: 1; solubility at 3 h ([1]; aqueous buffer, thermodynamic from solid, apparent solubility, 37° C., shaken 3 h): 4 µg/mL (≈ 4.68 µM); Dissolution % ([2]; 15 min): 13.1%; Dissolution % ([2]; 30 min): 14.5%; Dissolution % ([2]; 45 min): 14.6%; Dissolution % ([2]; 60 min): 14.8%; Dissolution % ([2]; 120 min): 14.1%; pKa [3]: 11.99; oral bioavailability [4]: about 2%; solubility in water [5]: lower than 10 μg/ml
